Test results taken from patent US20070072897A1, “Phenylaminopropanol derivatives and methods of their use” (Wyeth, priority 2005, published 2007).
Structures can show the parent of a compound that is named as a salt.

Columns and labels:
human hNET = molecular target: T1, human hNET (Homo sapiens, UniProt P23975); assay: Norepinephrine (NE) uptake assay in MDCK-Net6 cells; format: cell-based; settings: [3H]NE uptake
T1 construct: expressed in transfected cells; host or cells: MDCK (MDCK-Net6)

human 5-HT2A receptor = molecular target: T2, human 5-HT2A receptor (Homo sapiens, UniProt P28223); assay: 5-HT2A FLIPR assay (calcium response to DOI) in CHO cells; format: cell-based; settings: antagonist inhibition of 3 nM DOI stimulation, CHO cells, FLIPR
T2 construct: expressed in transfected cells; host or cells: CHO
Outline: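 CHO cells loaded with calcium dye in HBSS/20 mM HEPES; FLIPR fluorescence recorded after compound addition (10^−10–10^−5 M) for 2 min to detect agonism, then after 3 nM DOI challenge for 5 min for antagonism. Data log transformed before analysis.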

T1 sequence (P23975 whole entry): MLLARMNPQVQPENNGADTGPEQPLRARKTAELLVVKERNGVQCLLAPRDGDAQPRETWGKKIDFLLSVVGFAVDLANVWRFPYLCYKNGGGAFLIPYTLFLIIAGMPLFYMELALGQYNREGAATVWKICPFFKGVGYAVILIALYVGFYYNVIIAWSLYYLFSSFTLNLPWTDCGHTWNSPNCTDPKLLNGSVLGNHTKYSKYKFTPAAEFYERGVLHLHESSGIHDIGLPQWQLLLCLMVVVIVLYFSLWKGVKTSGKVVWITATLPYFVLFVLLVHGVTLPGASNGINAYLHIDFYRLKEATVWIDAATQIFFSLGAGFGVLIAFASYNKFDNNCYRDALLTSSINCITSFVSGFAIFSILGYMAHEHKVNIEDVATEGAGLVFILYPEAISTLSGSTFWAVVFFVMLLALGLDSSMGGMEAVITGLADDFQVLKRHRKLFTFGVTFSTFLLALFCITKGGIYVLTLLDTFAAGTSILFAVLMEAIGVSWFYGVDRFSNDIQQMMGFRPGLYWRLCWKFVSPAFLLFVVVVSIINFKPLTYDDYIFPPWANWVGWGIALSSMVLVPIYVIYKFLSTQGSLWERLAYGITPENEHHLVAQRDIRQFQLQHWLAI
T2 sequence (P28223 whole entry): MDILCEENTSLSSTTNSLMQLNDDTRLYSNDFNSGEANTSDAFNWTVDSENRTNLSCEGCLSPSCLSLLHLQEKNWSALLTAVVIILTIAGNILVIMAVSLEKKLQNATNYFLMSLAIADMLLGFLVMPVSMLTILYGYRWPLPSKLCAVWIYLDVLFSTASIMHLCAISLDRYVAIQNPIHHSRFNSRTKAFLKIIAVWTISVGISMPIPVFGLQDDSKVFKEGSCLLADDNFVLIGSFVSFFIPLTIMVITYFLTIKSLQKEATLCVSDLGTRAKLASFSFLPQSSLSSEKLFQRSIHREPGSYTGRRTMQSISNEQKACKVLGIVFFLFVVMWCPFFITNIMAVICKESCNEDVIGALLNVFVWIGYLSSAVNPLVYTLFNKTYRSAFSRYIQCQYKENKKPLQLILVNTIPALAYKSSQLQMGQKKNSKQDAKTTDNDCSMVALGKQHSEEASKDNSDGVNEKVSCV

Row | Compound | EC50 (human hNET; MDCK-Net6 cells stably transfected with hNET) [nM] | IC50 (human 5-HT2A receptor) [nM] | inhibition at 1 µM (human hNET; at 1 μM, MDCK-Net6 cells, read-out: hNET Percentage inhibition at 1 μM) [%]
1 | CNC[C@@H](O)[C@H](c1ccccc1)n1ccc2cc(OCc3ccccc3C)ccc21 [Example 14, (1S,2R)-3-(methylamino)-1-{5-[(2-methylbenzyl)oxy]-1H-indol-1-yl}-1-phenylpropan-2-ol hydrochloride] | 109 | 442 | 
2 | CCNC[C@@H](O)[C@H](c1ccccc1)N1C(=O)C2(CCCCC2)c2cc(F)ccc21 [Example 100, 1′-[(1S,2R)-3-(ethylamino)-2-hydroxy-1-phenylpropyl]-5′-fluorospiro[cyclohexane-1,3′-indol]-2′(1′H)-one hydrochloride] |  | 378 | 31
